Experiment [1] concerns velvetleaf. In words: Test Example 5: herbicidal effect by foliage application, plastic box (Table 20, symbol M). The format is in vivo, velvetleaf (Abutilon theophrasti). To be noted: foliage application, AAH 320 g/ha, evaluated three weeks after application. A digest of the protocol: (§1)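 Plants sown in sterilized diluvial soil and grown 14 days in a greenhouse at 25° C to 30° C, then sprayed on the foliage with the compound's emulsion diluted in water to a predetermined herbicide amount. Injury to weeds and crops scored three weeks after application on a visual rating scale.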

Experiment [2] relates to wild oat. Description: Test Example 4: herbicidal effect by soil treatment (Table 19, symbol I). The format is in vivo, wild oat (Avena fatua). Particulars: amount of applied herbicide 320 g/ha. A digest of the protocol: (§2)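 Three weeks of greenhouse growth at 25° C. to 30° C. followed a uniform surface spray of water-diluted emulsion at a predetermined herbicide amount. Seeds had been sown beforehand under about 1.5 cm of sterilized diluvial soil. Grading followed criteria set out in an earlier test.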

In experiment [3] the test system is Italian ryegrass. Description: Test Example 4: herbicidal effect by soil treatment (Table 19, symbol K). Format: in vivo, Italian ryegrass (Lolium multiflorum). Particulars: amount of applied herbicide 320 g/ha. The essentials:
as §2

The subject of experiment [4] is wild oat. Description: Test Example 5: herbicidal effect by foliage application, plastic box (Table 20, symbol I). Format: in vivo, wild oat (Avena fatua). To be noted: foliage application, AAH 320 g/ha, evaluated three weeks after application. The essentials: as §1
Experiment [5] has as its system southern crabgrass. In words: Test Example 4: herbicidal effect by soil treatment (Table 19, symbol F). The format is in vivo, southern crabgrass (Digitaria ciliaris). To be noted: amount of applied herbicide 320 g/ha. The essentials:
as §2

In experiment [6] the test system is green foxtail. In words: Test Example 5: herbicidal effect by foliage application, plastic box (Table 20, symbol G). The format is in vivo, green foxtail (Setaria viridis). Particulars: foliage application, AAH 320 g/ha, evaluated three weeks after application. A digest of the protocol:
as §1

Experiment [7] deals with chickweed. In words: Test Example 5: herbicidal effect by foliage application, plastic box (Table 20, symbol P). The format is in vivo, common chickweed (Stellaria media). Particulars: foliage application, AAH 320 g/ha, evaluated three weeks after application. A digest of the protocol: as §1
Experiment [8] deals with redroot pigweed. In words: Test Example 5: herbicidal effect by foliage application, plastic box (Table 20, symbol N). Particulars: foliage application, AAH 320 g/ha, evaluated three weeks after application. Format: in vivo, redroot pigweed (Amaranthus retroflexus). A digest of the protocol: as §1
Experiment [9] relates to barnyard grass. Description: Test Example 4: herbicidal effect by soil treatment (Table 19, symbol H). Format: in vivo, barnyard grass (Echinochloa crus-galli). To be noted: amount of applied herbicide 320 g/ha. A digest of the protocol:
as §2

Experiment [10] has as its system blackgrass. Description: Test Example 5: herbicidal effect by foliage application, plastic box (Table 20, symbol J). Format: in vivo, blackgrass (Alopecurus myosuroides). To be noted: foliage application, AAH 320 g/ha, evaluated three weeks after application. The essentials:
as §1

Experiment [11] deals with chickweed. Description: Test Example 4: herbicidal effect by soil treatment (Table 19, symbol P). The format is in vivo, common chickweed (Stellaria media). Particulars: amount of applied herbicide 320 g/ha. The essentials: as §2
Experiment [12] concerns lambsquarters. In words: Test Example 4: herbicidal effect by soil treatment (Table 19, symbol O). Format: in vivo, lambsquarters (Chenopodium album). To be noted: amount of applied herbicide 320 g/ha. The essentials: as §2
Experiment [13] relates to windgrass. In words: Test Example 5: herbicidal effect by foliage application, plastic box (Table 20, symbol L). To be noted: foliage application, AAH 320 g/ha, evaluated three weeks after application. Format: in vivo, windgrass (Apera spica-venti). A digest of the protocol:
as §1

Experiment [14] deals with Japanese bulrush. Description: Test Example 2: herbicidal activity, application during weed generation under submerged conditions (Table 17, symbol B). Format: in vivo, Japanese bulrush (Schoenoplectus juncoides). Particulars: AAH 320 g/ha; application during weed generation, submerged conditions. A digest of the protocol: (§3)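 Steps: fill Wagner pots with alluvial soil; add water to give 4 cm depth; sow the species mixed; grow under glass at 25–30° C.; at 1–2 leaves apply water-diluted emulsion formulation to the water surface at a fixed herbicide amount; score after 3 weeks.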

The subject of experiment [15] is barnyard grass. Description: Test Example 3: herbicidal effect by foliage application, Wagner pot (Table 18, symbol H). Format: in vivo, barnyard grass (Echinochloa crus-galli). Particulars: amount of applied herbicide 320 g/ha. The essentials:
(§4)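 Plants were sown in alluvial soil held under 0.1–0.5 cm standing water and grown 14 days in a greenhouse at 25–30 °C. An emulsifiable formulation, water-diluted to the set dose, was then sprayed onto the foliage, and effects were scored three weeks later using previously defined criteria.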

Experiment [16] relates to late watergrass. In words: Test Example 2: herbicidal activity, application during weed generation under submerged conditions (Table 17, symbol A). Format: in vivo, late watergrass (Echinochloa oryzicola). To be noted: AAH 320 g/ha; application during weed generation, submerged conditions. The essentials: as §3
In experiment [17] the test system is redroot pigweed. Description: Test Example 4: herbicidal effect by soil treatment (Table 19, symbol N). The format is in vivo, redroot pigweed (Amaranthus retroflexus). To be noted: amount of applied herbicide 320 g/ha. The essentials: as §2
Experiment [18] has as its system rice flat sedge. In words: Test Example 3: herbicidal effect by foliage application, Wagner pot (Table 18, symbol E). To be noted: amount of applied herbicide 320 g/ha. The format is in vivo, rice flat sedge (Cyperus iria). A digest of the protocol:
as §4

For experiment [19], the system named is Italian ryegrass. Description: Test Example 5: herbicidal effect by foliage application, plastic box (Table 20, symbol K). The format is in vivo, Italian ryegrass (Lolium multiflorum). To be noted: foliage application, AAH 320 g/ha, evaluated three weeks after application. The essentials:
as §1

Experiment [20] relates to green foxtail. In words: Test Example 4: herbicidal effect by soil treatment (Table 19, symbol G). Format: in vivo, green foxtail (Setaria viridis). Particulars: amount of applied herbicide 320 g/ha. A digest of the protocol: as §2
Experiment [21] has as its system persian speedwell. In words: Test Example 5: herbicidal effect by foliage application, plastic box (Table 20, symbol R). Particulars: foliage application, AAH 320 g/ha, evaluated three weeks after application. The format is in vivo, Persian speedwell (Veronica persica). A digest of the protocol: as §1
Experiment [22] deals with velvetleaf. In words: Test Example 4: herbicidal effect by soil treatment (Table 19, symbol M). Format: in vivo, velvetleaf (Abutilon theophrasti). Particulars: amount of applied herbicide 320 g/ha. A digest of the protocol: as §2

For the compound `C=CCSCc1ccc(-c2sc3ccc(F)cc3c2-c2c(O)c(C)nn(C)c2=O)cc1` [2-323], the “M: velvetleaf, herbicidal effect (criteria 0-5)” value in experiment [1] was 5 (Herbicidal rate of 90% or more (almost completely withered)). For the same compound, the “herbicidal effect on I: wild oat” value in [2] was 0 (Herbicidal rate of 5% or less (almost no effect)). For the same compound, the “herbicidal effect on K: Italian ryegrass” value in experiment [3] is 4 (Herbicidal rate of 70% or more and less than 90%). Besides, the “I: wild oat, herbicidal effect (criteria 0-5)” value in experiment [4] is 3 (Herbicidal rate of 40% or more and less than 70%). In addition, the “herbicidal effect on F: southern crabgrass” value in experiment [5] was 1 (Herbicidal rate of 5% or more and less than 20%). For the same compound, the “G: green foxtail, herbicidal effect (criteria 0-5)” value in [6] is 5 (Herbicidal rate of 90% or more (almost completely withered)). Moreover, in experiment [7], the “P: chickweed, herbicidal effect (criteria 0-5)” value was 5 (Herbicidal rate of 90% or more (almost completely withered)). Also, the “N: redroot pigweed, herbicidal effect (criteria 0-5)” value in [8] is 5 (Herbicidal rate of 90% or more (almost completely withered)). Further, the figures for the “herbicidal effect on H: barnyard grass” value in experiment [9] and in experiment [15] were 0 (Herbicidal rate of 5% or less (almost no effect)) and 5 (Herbicidal rate of 90% or more (almost completely withered)), respectively. Besides, the “J: blackgrass, herbicidal effect (criteria 0-5)” value in experiment [10] was 4 (Herbicidal rate of 70% or more and less than 90%). Also, the “herbicidal effect on P: chickweed” value in experiment [11] is 1 (Herbicidal rate of 5% or more and less than 20%). Moreover, the “herbicidal effect on O: lambsquarters” value in experiment [12] was 3 (Herbicidal rate of 40% or more and less than 70%). Further, in [13], the “L: windgrass, herbicidal effect (criteria 0-5)” value was 5 (Herbicidal rate of 90% or more (almost completely withered)). Further, the “herbicidal effect rating, B: Japanese bulrush” value in experiment [14] is reported as 0 (Herbicidal rate of 5% or less (almost no effect)). Further, in experiment [16], the “herbicidal effect rating, A: late watergrass” value is 3 (Herbicidal rate of 40% or more and less than 70%). In addition, the “herbicidal effect on N: redroot pigweed” value in experiment [17] is reported as 5 (Herbicidal rate of 90% or more (almost completely withered)). Moreover, the “herbicidal effect on E: rice flat sedge” value in [18] was 3 (Herbicidal rate of 40% or more and less than 70%). The “K: Italian ryegrass, herbicidal effect (criteria 0-5)” value in experiment [19] is 4 (Herbicidal rate of 70% or more and less than 90%). In addition, the “herbicidal effect on G: green foxtail” value in experiment [20] is 3 (Herbicidal rate of 40% or more and less than 70%). The “R: persian speedwell, herbicidal effect (criteria 0-5)” value in experiment [21] is 5 (Herbicidal rate of 90% or more (almost completely withered)). In addition, the “herbicidal effect on M: velvetleaf” value in experiment [22] is 1 (Herbicidal rate of 5% or more and less than 20%).

Values taken from patent US20230085307A1, “PYRIDAZINONE COMPOUND AND HERBICIDE” (NISSAN CHEMICAL CORPORATION, priority 2019, published 2023).
